Test results published in US20060148694A1, “Inhibition of stress-induced ligand-dependent egfr activation” (Max-Planck-Gesellschaft zur Foerderung der Wessenschaften. …, priority 2003, published 2006).
One block for each molecule: values may come before it.

Experiments:
[1] = tested on: EGFR; experiment: EGFR tyrosine phosphorylation (IP/immunoblot) in Cos-7 cells; type: cell-based; details: for EGFR activation by oxidative stress: Src inhibitors, unpublished data; for stress-induced EGFR activation: pre-treated 30 min with SB202190 10 μM or PD98059 50 μM, 0.3 M sorbitol or 200 μM hydrogen peroxide 10 min; for EGFR activation after sorbitol or hydrogen peroxide upon siRNA transfection: both stress stimuli, 10 min, FIG. 5B
[2] = tested on: ADAM15; experiment: RNA interference, gene expression by RT-PCR in NCI-H292 cells; type: cell-based, human; details: 2 days after transfection, FIG. 5A
Method: (§1) FIG. 5. Effect of siRNAs against different ADAM proteins on stress-induced EGFR phosphorylation. (A) Blockade of ADAM metalloprotease expression by RNA interference (RNAi). NCI-H292 cells were transfected with siRNA against ADAM9, ADAM10 or ADAM15, cultured for 2 days and analyzed for gene expression by RT-PCR as indicated. (B) Cos-7 cells were transfected with siRNAs against ADAM9, -10, -12, -15 and -17, serum-starved for 24 hours, stimulated with 0.3 M sorbitol or 200 μM hydrogen peroxide for 10 min and assayed for EGFR tyrosine phosphorylation content. (C)NCI-H292 cells were treated as described under (B).
(§2) Transfection of 21-nucleotide siRNA duplexes (Dharmacon Research, Lafayette, Colo., USA) for targeting endogenous genes was carried out using Oligofectamine (Invitrogen) for NCI-H292 cells and 4.2 μg siRNA duplex per 6-well plate as previously described (Elbashir et al., 2001). Cos-7 cells were transfected using Lipofectamine 2000 (Invitrogen) according to the manufacturer's protocol. Briefly, 8.4 μg siRNA duplex per 6 cm dish were incubated with 10 μL Lipofectamine 2000 in 1 mL serum-free medium for 20 minutes. The transfection mixture was added to the cell culture medium containing serum and, after 6 h, cells were washed and incubated in medium containing serum overnight. NCI-H292 and Cos-7 cells were serum-starved and assayed 2 d after transfection. Highest efficiencies in silencing target genes were obtained by using mixtures of siRNA duplexes targeting different regions of the gene of interest. Sequences of siRNA used were
(§3) Specific silencing of targeted genes was confirmed by RT-PCR analysis. RNA isolated using RNeasy Mini Kit (Qiagen, Hilden, Germany) was reverse transcribed using AMV Reverse Transcriptase (Roche, Mannheim, Germany). PuReTaq Ready-To-Go PCR Beads (Amersham Biosciences, Piscataway, N.J.) were used for PCR amplification. Primers (Sigma Ark, Steinheim, Germany) were
(§4) PCR products were subjected to electrophoresis on a 2.5% agarose gel and DNA was visualized by ethidium bromide staining.

[3] = tested on: EGFR; experiment: EGFR tyrosine phosphorylation (IP/immunoblot) in NCI-H292 lung carcinoma cells; type: cell-based, human; details: for stress-induced EGFR activation upon siRNA transfection: 0.3 M sorbitol or 200 μM hydrogen peroxide 10 min
[4] = tested on: p38; experiment: p38 phosphorylation immunoblot in Cos-7 cells; type: cell-based; details: AG1478 250 nM 20 min, 0.3 M sorbitol or 200 μM hydrogen peroxide, FIG. 2A
Method: FIG. 2. p38 mediates stress-induced EGFR phosphorylation. (A) Time-coure of p38 phosphorylation dependent on EGFR kinase function. Cos-7 cells were pretreated with AG1478 (250 nM) or an equal volume of empty vehicle (DMSO) for 20 min and stimulated with 0.3 M sorbitol or 200 μM hydrogen peroxide for the indicated periods. Cell extracts were immunoblotted with anti-phospho-p38 antibody and reprobing of the same filters with polyclonal anti-p38 antibody. (B) Stress-induced EGFR activation depends on p38 but not ERK activity in Cos-7 cells. Cos-7 cells were pre-treated with PD98059 (50 μM), SB202190 (10 μM) or an equal volume of empty vehicle (DMSO) for 30 min and stimulated with 0.3 M sorbitol and 200 μM hydrogen peroxide for 10 min and the GPCR agonist LPA (10 μM) or EGF (2 ng/mL) for 3 min as positive controls. Cell extracts were assayed for EGFR tyrosine phosphorylation content. (C) Stress-induced EGFR activation depends on p38 activity in TCC-Sup carcinoma cells. […]
FIG. 6. […] Quantitative analysis of ERK phosphorylation from three independent experiments (mean[…]s.d.) using the FUJI LAS1000 imaging system. […] Quantitative analysis of GST-c-JUN phosphorylation from three independent experiments (mean[…]s.d.) using the FUJI LAS1000 imaging system. […]

[5] = tested on: ERK1/2; experiment: ERK1/2 phosphorylation immunoblot in Cos-7 cells (pcDNA3-HA-ERK2); type: cell-based; details: AG1478 250 nM, BB94 10 μM, Crm197 10 μg/mL 20 min, stimulated 30 min, FIG. 6A
Method: (§5) FIG. 6. MAPK activation in response to stress agents and blockade of EGFR, metalloprotease and HB-EGF function. (A) Cos-7 cells transiently transfected with pcDNA3-HA-ERK2, TCC-Sup and NCI-H292 cells were pre-treated with AG1478 (250 nM), BB94 (10 μM), Crm197 (10 μg/mL) or an equal volume of empty vehicle (DMSO) for 20 min and stimulated with 0.3 M sorbitol or 200 μM hydrogen peroxide for 30 min. After cell lysis total lysates were immunoblotted with anti-phospho-ERK antibody, followed by reprobing of the same membranes with polyclonal anti-ERK antibody. Quantitative analysis of ERK phosphorylation from three independent experiments (mean[…]s.d.) using the FUJI LAS1000 imaging system. (B) Cos-7 and NCI-H292 cell were treated as described under (A). After lysis, JNK was immunoprecipitated using an anti-JNK antibody, and JNK activity was assayed using GST-c-JUN fusion protein as a substrate. Phosphorylated GST-c-JUN was visualized by autoradiography and JNK was immunoblotted in parallel using polyclonal JNK antibody. Quantitative analysis of GST-c-JUN phosphorylation from three independent experiments (mean[…]s.d.) using the FUJI LAS1000 imaging system. TCC-Sup cells were treated as described under (A). […]
(§6) Cells were lysed and proteins immunoprecipitated as described before (Daub et al., 1997). […] Phosphotyrosine was detected with the 4G10 monoclonal antibody (UBI, Lake Placid, N.Y.). […]

[6] = tested on: ERK1/2; experiment: ERK1/2 phosphorylation immunoblot in TCC-Sup cells; type: cell-based, human; details: AG1478 250 nM, BB94 10 μM, Crm197 10 μg/mL, FIG. 6A
Method: as §5, §6

[7] = tested on: ERK1/2; experiment: ERK1/2 phosphorylation immunoblot in NCI-H292 cells; type: cell-based, human; details: AG1478 250 nM, BB94 10 μM, Crm197 10 μg/mL, FIG. 6A
Method: as §5, §6

[8] = tested on: p38; experiment: p38 activation immunoblot in TCC-Sup cells after doxorubicin; type: cell-based, human; details: doxorubicin treatment, FIG. 7A
Method: FIG. 7. Doxorubicin-induced cell death of TCC-Sup carcinoma cells. (A) p38 activation in response to doxorubicin treatment. TCC-Sup cells were seeded and treated with doxorubicin for the indicated time points. After cell lysis, p38 activation was assessed by immunoblotting cell extracts with anti-phospho-p38 antibody and reprobing of the same filters with anti-p38 antibody. (B) Blockade of HB-EGF function enhances cell-death in response to doxorubicin. Cells were treated for 72 h with 10 μM doxorubicin and 10 μg/mL Crm197 every 24 h as indicated. After collection of cells in assay buffer, nuclei were stained with PI and analyzed by flow cytometric analysis.
Cells were lysed and proteins immunoprecipitated as described before (Daub et al., 1997). Prior to lysis, cells grown to 80% confluence were treated with inhibitors and agonists as indicated in the figure legends and then lysed for 10 min on ice in buffer containing 50 mM HEPES, pH 7.5, 150 mM NaCl, 1% Triton X-100, 1 mM EDTA, 10% glycerol, 10 mM sodium pyrophosphate, 2 mM sodium orthovanadate, 10 mM sodium fluoride, 1 mM phenylmethylsulfonyl fluoride, and 10 μg/mL aprotinin. Lysates were precleared by centrifugation at 13,000 rpm for 10 min at 4° C. […] Phosphotyrosine was detected with the 4G10 monoclonal antibody (UBI, Lake Placid, N.Y.). […]

[9] = tested on: ADAM10; experiment: RNA interference, gene expression by RT-PCR in NCI-H292 cells; type: cell-based, human; details: 2 days after transfection, FIG. 5A
Method: as §1, §2, §3, §4

[10] = tested on: ADAM9; experiment: as above; type: cell-based, human; details: 2 days after transfection, FIG. 5A
Method: as §1, §2, §3, §4

[11] = target: epidermal growth factor receptor (EGFR) (UniProt P00533); experiment: cell-based or functional assay

Molecule: Cc1ccc(-c2nn(C(C)(C)C)c3ncnc(N)c23)cc1 [PP1]
EGFR activation by oxidative stress [1]: did not achieve specific inhibition

Molecule: Oc1ccc(-c2nc(-c3ccncc3)c(-c3ccc(F)cc3)[nH]2)cc1 [SB202190]
EGF-induced receptor phosphorylation ([1]; SB202190 10 μM 30 min, EGF 2 ng/mL 3 min, FIG. 2B): unaffected
LPA-induced receptor phosphorylation ([1]; SB202190 10 μM 30 min, LPA 10 μM 3 min, FIG. 2B): unaffected
stress-induced EGFR activation ([1]; FIG. 2B): completely abrogated

Molecule: siRNA against ADAM15: mixture of siRNA duplexes, SEQ ID NO 7 and 8, targeting ADAM15 (chain 1 AACUCCAUCUGUUCUCCUGACTT; chain 2 AAAUUGCCAGCUGCGCCCGUCTT; chemistry not fully specified)
knockdown of target gene expression (ADAM15) [2]: efficient and specific knockdown

Molecule: siRNA against ADAM12: mixture of siRNA duplexes, SEQ ID NO 5 and 6, targeting ADAM12 (chain 1 AACCUCGCUGCAAAGAAUGUGTT; chain 2 AAGACCUUGATACGACUGCUGTT; chemistry not fully specified)
EGFR activation upon siRNA transfection, hydrogen peroxide treatment only ([3]; 200 μM hydrogen peroxide, FIG. 5C): participate in the stress response

Molecule: COc1cc2ncnc(Nc3cccc(Cl)c3)c2cc1OC [AG1478]
p38 phosphorylation in response to stress agents [4]: did not affect
sorbitol and hydrogen peroxide-induced activation of ERK1/2 [5]: blocked
hyperosmolarity and oxidative stress-induced ERK1/2 activation [6]: substantially blocked
hyperosmolarity and oxidative stress-induced ERK1/2 activation [7]: substantially blocked

Molecule: COc1cccc2c1C(=O)c1c(O)c3c(c(O)c1C2=O)C[C@@](O)(C(=O)CO)C[C@@H]3O[C@H]1C[C@H](N)[C@H](O)[C@H](C)O1 [doxorubicin]
p38 activation [8]: induces p38 activation

Molecule: COc1cccc(-c2cc(=O)c3ccccc3o2)c1N [PD98059]
stress-induced EGFR activation ([1]; FIG. 2B): did not affect

Molecule: siRNA against ADAM10: mixture of 21-nucleotide siRNA duplexes, SEQ ID NO 3 and 4, targeting ADAM10 (chain 1 AAUGAAGAGGGACACUUCCCUTT; chain 2 AAGUUGCCUCCUCCUAAACCATT; chemistry not fully specified)
EGFR activation after sorbitol or hydrogen peroxide upon siRNA transfection [1]: involved in EGFR activation
knockdown of target gene expression (ADAM10) [9]: efficient and specific knockdown

Molecule: CNC(=O)[C@H](Cc1ccccc1)NC(=O)[C@H](CC(C)C)[C@H](CSc1cccs1)C(=O)NO [BB94, Batimastat]
inhibition of stress-induced EGFR activation ([3]; BB94 10 μM 20 min, sorbitol 0.3 M or hydrogen peroxide 200 μM 10 min, printed 'inhibited ... to 50%'): 50%

Molecule: CC(C)(C)n1nc(-c2ccc(Cl)cc2)c2c(N)ncnc21 [PP2]
EGFR activation by oxidative stress [1]: did not achieve specific inhibition

Molecule: siRNA against ADAM9: mixture of 21-nucleotide siRNA duplexes, SEQ ID NO 1 and 2, targeting ADAM9 (chain 1 AAUCACUGUGGAGACAUUUGCTT; chain 2 AAACUUCCAGUGUGUAGAUGCTT; chemistry not fully specified)
stress-induced EGFR activation upon siRNA transfection ([3]; FIG. 5C): participate in the stress response
knockdown of target gene expression (ADAM9) [10]: efficient and specific knockdown

JNK activity in response to oxidative stress (Cos-7 cells; kinase assay with GST-c-JUN) [11]: 50%
Molecule: HB-EGF (from UniProt Q99075 20-208) (ligand)

B1: siRNA against ADAM17: mixture of siRNA duplexes, SEQ ID NO 9 to 11, targeting ADAM17 (nucleic acid)
chain 1: AAAGUUUGCUUGGCACACCUUTT
chain 2: AAGUAAGGCCCAGGAGUGUUTT
chain 3: AACAUAGAGCCACUUUGGAGATT
modifications: chemistry not fully specified
EGFR activation after sorbitol or hydrogen peroxide upon siRNA transfection [1]: involved in EGFR activation
stress-induced EGFR activation upon siRNA transfection ([3]; FIG. 5C): involved in stress-induced EGFR activation
